In ChEMBL document CHEMBL1287744, “Potent and selective 5-LO inhibitor bearing benzothiophene pharmacophore: discovery of MK-5286” (Bioorg Med Chem Lett, 2010):
The source made the active and inactive calls. No cut-off for these calls is given here.

Legend:
[1] = biological target: T1, Polyunsaturated fatty acid 5-lipoxygenase (Homo sapiens, UniProt P09917); assay: Inhibition of human recombinant 5-lipoxygenase assessed as arachidonic acid oxidation
T1 sequence (P09917 whole entry): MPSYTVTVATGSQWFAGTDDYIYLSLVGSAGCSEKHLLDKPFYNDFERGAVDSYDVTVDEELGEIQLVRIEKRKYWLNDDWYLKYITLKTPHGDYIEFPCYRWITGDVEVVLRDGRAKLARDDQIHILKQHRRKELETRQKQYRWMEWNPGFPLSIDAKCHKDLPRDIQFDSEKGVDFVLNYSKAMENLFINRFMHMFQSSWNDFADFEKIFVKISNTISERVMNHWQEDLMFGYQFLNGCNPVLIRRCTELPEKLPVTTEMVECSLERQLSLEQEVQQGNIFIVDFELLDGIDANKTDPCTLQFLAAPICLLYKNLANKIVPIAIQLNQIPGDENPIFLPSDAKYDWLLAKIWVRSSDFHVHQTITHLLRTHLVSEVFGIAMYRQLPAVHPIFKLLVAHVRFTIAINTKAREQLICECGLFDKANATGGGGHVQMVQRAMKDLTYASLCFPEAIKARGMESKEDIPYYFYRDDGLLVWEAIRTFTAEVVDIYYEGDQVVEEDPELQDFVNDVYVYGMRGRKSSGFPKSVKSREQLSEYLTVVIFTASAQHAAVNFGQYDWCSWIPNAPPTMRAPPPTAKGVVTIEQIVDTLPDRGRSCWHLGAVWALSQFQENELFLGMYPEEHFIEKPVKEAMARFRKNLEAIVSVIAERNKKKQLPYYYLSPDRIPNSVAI

[2] = biological target: T1, Polyunsaturated fatty acid 5-lipoxygenase; assay: Inhibition of 5-lipoxygenase in human whole blood assessed as inhibition of LTB4 production; format: tissue-based
[3] = biological target: T2, Polyunsaturated fatty acid lipoxygenase ALOX12 (Homo sapiens, UniProt P18054); assay: Inhibition of 12-lipoxygenase
T2 sequence (P18054 whole entry): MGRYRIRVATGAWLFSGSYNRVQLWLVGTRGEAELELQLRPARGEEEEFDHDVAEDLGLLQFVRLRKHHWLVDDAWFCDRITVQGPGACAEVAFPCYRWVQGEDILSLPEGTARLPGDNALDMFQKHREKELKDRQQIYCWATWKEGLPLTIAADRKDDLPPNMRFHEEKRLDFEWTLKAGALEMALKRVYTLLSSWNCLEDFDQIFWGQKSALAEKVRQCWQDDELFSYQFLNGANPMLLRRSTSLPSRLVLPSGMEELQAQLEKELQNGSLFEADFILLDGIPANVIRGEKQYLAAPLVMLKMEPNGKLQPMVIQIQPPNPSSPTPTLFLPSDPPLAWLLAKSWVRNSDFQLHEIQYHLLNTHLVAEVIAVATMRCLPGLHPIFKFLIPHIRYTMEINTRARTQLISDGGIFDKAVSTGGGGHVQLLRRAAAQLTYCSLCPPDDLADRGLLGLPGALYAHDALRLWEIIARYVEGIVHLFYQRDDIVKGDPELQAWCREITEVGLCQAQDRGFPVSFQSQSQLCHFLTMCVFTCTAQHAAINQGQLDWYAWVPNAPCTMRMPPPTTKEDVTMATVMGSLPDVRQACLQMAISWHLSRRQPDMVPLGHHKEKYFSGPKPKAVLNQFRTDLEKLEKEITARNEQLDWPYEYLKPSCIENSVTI

[4] = biological target: T3, Polyunsaturated fatty acid lipoxygenase ALOX15 (Homo sapiens, UniProt P16050); assay: Inhibition of 15-lipoxygenase
T3 sequence (P16050 whole entry): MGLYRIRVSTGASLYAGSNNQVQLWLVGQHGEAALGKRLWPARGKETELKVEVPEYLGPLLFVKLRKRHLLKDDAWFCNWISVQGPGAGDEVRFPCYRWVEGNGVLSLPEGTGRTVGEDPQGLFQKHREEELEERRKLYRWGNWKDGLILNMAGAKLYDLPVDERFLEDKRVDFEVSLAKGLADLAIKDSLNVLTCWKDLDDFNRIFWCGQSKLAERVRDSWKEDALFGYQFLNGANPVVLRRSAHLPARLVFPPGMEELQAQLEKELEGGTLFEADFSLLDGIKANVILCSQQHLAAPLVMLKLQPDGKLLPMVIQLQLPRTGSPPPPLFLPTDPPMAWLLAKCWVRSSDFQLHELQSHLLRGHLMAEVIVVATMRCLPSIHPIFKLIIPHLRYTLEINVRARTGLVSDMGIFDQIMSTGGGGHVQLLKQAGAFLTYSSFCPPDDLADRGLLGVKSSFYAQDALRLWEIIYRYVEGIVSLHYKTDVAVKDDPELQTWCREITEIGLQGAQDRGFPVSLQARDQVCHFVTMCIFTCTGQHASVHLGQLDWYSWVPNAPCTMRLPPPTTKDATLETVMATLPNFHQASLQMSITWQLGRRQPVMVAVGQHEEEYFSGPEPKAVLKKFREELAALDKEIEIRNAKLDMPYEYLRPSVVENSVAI

[5] = biological target: T4, Arachidonate 5-lipoxygenase-activating protein (Homo sapiens, UniProt P20292); assay: (§1) Inhibition of 5-lipoxygenase activating protein
T4 sequence (P20292 whole entry): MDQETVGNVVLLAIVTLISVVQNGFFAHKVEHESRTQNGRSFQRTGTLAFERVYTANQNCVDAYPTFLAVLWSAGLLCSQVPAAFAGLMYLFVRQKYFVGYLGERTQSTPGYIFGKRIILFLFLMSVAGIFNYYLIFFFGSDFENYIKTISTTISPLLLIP

[6] = Oral bioavailability in rat at 20 mg/kg; format: ADME, organism-based; details: in vivo
[7] = Half life in rat at 5 mg/kg, iv and 20 mg/kg, po; format: ADME, organism-based; details: in vivo
[8] = Cmax in rat at 5 mg/kg, iv and 20 mg/kg, po; format: ADME, organism-based; details: in vivo
[9] = Oral bioavailability in dog at 4 mg/kg; format: ADME, organism-based, Canis lupus familiaris; details: in vivo
[10] = Half life in dog at 5 mg/kg, iv and 4 mg/kg, po; format: ADME, organism-based, Canis lupus familiaris; details: in vivo
[11] = Cmax in dog at 5 mg/kg, iv and 4 mg/kg, po; format: ADME, organism-based, Canis lupus familiaris; details: in vivo
[12] = Oral bioavailability in rhesus monkey at 4 mg/kg; format: ADME, organism-based, Macaca mulatta; details: in vivo
[13] = Half life in rhesus monkey at 5 mg/kg, iv and 4 mg/kg, po; format: ADME, organism-based, Macaca mulatta; details: in vivo
[14] = Cmax in rhesus monkey at 5 mg/kg, iv and 4 mg/kg, po; format: ADME, organism-based, Macaca mulatta; details: in vivo
[15] = biological target: Voltage-gated inwardly rectifying potassium channel KCNH2 (Homo sapiens, UniProt Q12809); assay: Displacement of labeled MK-499 from human ERG
Voltage-gated inwardly rectifying potassium channel KCNH2, sequence (Q12809 whole entry): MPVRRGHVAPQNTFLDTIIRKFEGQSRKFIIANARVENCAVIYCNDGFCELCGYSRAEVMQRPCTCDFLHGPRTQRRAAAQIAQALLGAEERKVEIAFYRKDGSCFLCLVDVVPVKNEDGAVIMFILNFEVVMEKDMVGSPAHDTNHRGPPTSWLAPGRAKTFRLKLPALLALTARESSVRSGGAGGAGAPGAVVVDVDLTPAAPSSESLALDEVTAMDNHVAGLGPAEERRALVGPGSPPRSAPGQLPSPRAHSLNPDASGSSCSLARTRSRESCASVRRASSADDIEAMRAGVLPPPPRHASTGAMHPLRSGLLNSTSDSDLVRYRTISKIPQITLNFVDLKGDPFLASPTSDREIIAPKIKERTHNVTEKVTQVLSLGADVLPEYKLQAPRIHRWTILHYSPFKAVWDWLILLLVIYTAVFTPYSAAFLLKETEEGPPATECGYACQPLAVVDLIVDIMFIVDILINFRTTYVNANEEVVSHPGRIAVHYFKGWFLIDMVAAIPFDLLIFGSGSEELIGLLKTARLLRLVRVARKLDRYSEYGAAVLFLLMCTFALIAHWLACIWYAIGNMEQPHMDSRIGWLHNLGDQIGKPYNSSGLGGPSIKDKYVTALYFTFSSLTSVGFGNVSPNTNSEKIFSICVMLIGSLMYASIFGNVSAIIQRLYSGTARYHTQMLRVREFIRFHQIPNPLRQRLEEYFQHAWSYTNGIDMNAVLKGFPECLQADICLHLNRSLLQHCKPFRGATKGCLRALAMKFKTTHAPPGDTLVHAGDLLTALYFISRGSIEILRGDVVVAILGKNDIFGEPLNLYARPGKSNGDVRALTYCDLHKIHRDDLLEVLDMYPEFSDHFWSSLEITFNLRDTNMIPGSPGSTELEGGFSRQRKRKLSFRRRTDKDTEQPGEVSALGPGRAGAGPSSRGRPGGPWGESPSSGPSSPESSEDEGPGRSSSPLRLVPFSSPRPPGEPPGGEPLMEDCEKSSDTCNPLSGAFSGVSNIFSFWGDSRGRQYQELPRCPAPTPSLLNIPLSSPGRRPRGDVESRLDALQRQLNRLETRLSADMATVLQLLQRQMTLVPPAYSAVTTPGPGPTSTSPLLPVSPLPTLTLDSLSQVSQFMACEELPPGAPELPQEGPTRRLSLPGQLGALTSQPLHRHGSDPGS

[16] = biological target: T5, Arachidonate 5-lipoxygenase-activating protein (Homo sapiens) (UniProt P20292); assay: as §1
T5 sequence (whole entry): T4 sequence (P20292 whole entry)

SMILES	IC50 [1] [nM]	IC50 [2] [nM]	Ki ([15]; read-out: Ki) [µM]	other results
CCC(O)(c1cn(Cc2ccc3c(-c4ccccc4)c(C(=O)OC)sc3c2)nn1)C(F)(F)F (stereo not given)	7.9	260	–	–
CC[C@](O)(c1cn(Cc2ccc3c(-c4ccc(F)cc4)c(C(N)=O)sc3c2)nn1)C(F)(F)F	55	21	13	IC50 [3]: > 20 µM; IC50 [4]: > 20 µM; IC50 [5]: > 20 µM; bioavailability [6]: 114%; half-life [7]: 474 min; Cmax [8]: 19.4 µM; bioavailability [9]: 120%; half-life [10]: 1740 min; Cmax [11]: 6.7 µM; bioavailability [12]: 66%; half-life [13]: 1320 min; Cmax [14]: 1400 nM
CC[C@](O)(c1cn(Cc2ccc3c(-c4ccc(F)cc4)c(C(=O)O)sc3c2)nn1)C(F)(F)F	> 10000	> 20000	> 20	inhibition [16]: inactive; inhibition (INH) ([15]; human): Not Active
CC[C@](O)(c1cn(Cc2ccc3c(-c4cccc(F)c4)c(C(N)=O)sc3c2)nn1)C(F)(F)F	39	31	14	–
CC[C@@](O)(c1cn(Cc2ccc3c(-c4ccc(F)cc4)c(C(N)=O)sc3c2)nn1)C(F)(F)F	1160	154	11	–
CCC(O)(c1cn(Cc2ccc3c(-c4ccccc4)c(C(N)=O)sc3c2)nn1)C(F)(F)F (stereo not given)	55	70	–	–
CCC(O)(c1cn(Cc2ccc3c(-c4ccccc4)c(C(=O)NC)sc3c2)nn1)C(F)(F)F (stereo not given)	223	263	–	–
CCC(O)(c1cn(Cc2ccc3c(-c4ccccc4)c(CO)sc3c2)nn1)C(F)(F)F (stereo not given)	19	64	13	–
CCC(O)(c1cn(Cc2ccc3c(-c4ccccc4)c(C(=O)N(C)C)sc3c2)nn1)C(F)(F)F (stereo not given)	1890	1840	> 20	–
CCC(O)(c1cn(Cc2ccc3c(-c4ccccc4)c(C(C)=O)sc3c2)nn1)C(F)(F)F (stereo not given)	11	84	4.4	–
CCC(O)(c1cn(Cc2ccc3c(-c4ccccc4)csc3c2)nn1)C(F)(F)F (stereo not given)	40	598	–	Ki [15]: Not Active
CC[C@](O)(c1cn(Cc2ccc3c(-c4ccccc4)c(C(N)=O)sc3c2)nn1)C(F)(F)F	28	32	–	–
CCC(O)(c1cn(Cc2ccc3c(-c4ccccc4)c(C(C)O)sc3c2)nn1)C(F)(F)F (stereo not given)	88	161	3.8	–
CCC(O)(c1cn(Cc2ccc3c(-c4ccccc4)c(C(=O)O)sc3c2)nn1)C(F)(F)F (stereo not given)	> 10000	> 20000	> 20	–
CCC(O)(c1cn(Cc2ccc3c(-c4ccccc4)c(C(C)(C)O)sc3c2)nn1)C(F)(F)F (stereo not given)	198	392	2.6	–
